Experimental findings from ChEMBL document CHEMBL4390688, “Accelerating the discovery of DGAT1 inhibitors through the application of parallel medicinal chemistry (PMC)” (Bioorg Med Chem Lett, 2019) are described below.

Series [1] has as its target T1, Diacylglycerol O-acyltransferase 1 (Mus musculus, UniProt Q9Z2A7).
T1 sequence (Q9Z2A7 whole entry): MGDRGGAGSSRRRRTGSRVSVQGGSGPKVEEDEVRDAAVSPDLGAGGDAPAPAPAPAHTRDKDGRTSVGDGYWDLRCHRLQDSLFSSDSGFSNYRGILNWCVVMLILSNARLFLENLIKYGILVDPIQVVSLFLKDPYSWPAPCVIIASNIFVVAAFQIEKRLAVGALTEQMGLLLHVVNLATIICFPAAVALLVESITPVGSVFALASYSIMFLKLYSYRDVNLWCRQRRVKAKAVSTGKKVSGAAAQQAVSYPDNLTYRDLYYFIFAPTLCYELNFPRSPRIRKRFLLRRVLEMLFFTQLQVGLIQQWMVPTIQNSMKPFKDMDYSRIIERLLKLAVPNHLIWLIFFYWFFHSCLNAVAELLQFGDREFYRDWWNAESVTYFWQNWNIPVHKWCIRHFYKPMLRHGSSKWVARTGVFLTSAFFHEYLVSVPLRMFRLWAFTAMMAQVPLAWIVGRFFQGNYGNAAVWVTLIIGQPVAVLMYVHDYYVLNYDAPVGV
Description: Inhibition of mouse DGAT1

For series [2], the target named is Voltage-gated inwardly rectifying potassium channel KCNH2 (Homo sapiens, UniProt Q12809). The experiment in a line: Inhibition of human ERG.
The target of series [3] is T2, Sterol O-acyltransferase 1 (Homo sapiens, UniProt P35610).
T2 sequence (P35610 whole entry): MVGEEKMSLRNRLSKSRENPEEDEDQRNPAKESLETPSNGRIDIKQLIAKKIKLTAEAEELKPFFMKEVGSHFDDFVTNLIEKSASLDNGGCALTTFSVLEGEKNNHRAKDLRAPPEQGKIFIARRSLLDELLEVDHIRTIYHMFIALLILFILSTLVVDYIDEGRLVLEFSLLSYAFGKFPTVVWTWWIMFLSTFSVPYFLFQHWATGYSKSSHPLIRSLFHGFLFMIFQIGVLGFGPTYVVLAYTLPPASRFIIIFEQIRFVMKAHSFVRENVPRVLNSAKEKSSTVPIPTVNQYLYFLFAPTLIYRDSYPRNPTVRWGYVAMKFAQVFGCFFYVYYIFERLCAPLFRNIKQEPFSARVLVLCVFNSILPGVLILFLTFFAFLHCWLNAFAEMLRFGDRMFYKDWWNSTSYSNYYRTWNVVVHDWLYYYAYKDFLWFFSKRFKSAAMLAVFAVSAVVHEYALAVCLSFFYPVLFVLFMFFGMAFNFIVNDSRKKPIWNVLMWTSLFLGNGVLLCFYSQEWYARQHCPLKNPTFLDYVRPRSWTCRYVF
Description: Inhibition of human ACAT1

In series [4] the target is T3, Diacylglycerol O-acyltransferase 1 (Homo sapiens, UniProt O75907).
T3 sequence (O75907 whole entry): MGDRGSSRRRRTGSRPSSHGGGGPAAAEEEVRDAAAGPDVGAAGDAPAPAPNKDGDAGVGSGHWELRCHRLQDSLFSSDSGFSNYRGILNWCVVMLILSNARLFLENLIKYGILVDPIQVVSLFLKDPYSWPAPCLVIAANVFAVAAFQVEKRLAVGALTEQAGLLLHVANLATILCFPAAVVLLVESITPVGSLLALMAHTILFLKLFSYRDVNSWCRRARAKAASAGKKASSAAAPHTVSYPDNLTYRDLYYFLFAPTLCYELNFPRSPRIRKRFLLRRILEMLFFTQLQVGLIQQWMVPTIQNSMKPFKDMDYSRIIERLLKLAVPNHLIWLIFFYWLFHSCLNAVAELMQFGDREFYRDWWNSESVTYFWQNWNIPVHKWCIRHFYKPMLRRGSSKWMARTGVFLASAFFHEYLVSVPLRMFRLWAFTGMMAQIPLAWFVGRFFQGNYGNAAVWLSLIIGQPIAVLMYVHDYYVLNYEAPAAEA
Description: Inhibition of human DGAT1

In series [5] the test system is Mus musculus. The experiment in a line: Reduction in lipid excursion in mouse at 10 mg/kg, po QD measured at 18 hrs post dose by lipid tolerance test relative to control. Format: functional. Details: scale not given: the % may be the effect or the level left.
Series [6] can be described thus: Distribution coefficient, log D of compound. The note with it: octanol/water. The format is physicochemical.

The term IC50 denotes the point on the concentration scale where inhibition reaches its midpoint. By Ki is commonly meant a dissociation constant, usually derived from enzyme kinetics or from competition with a known ligand. Broadly, the logD is the decadic logarithm of the distribution of all forms, ionised or not, between an organic phase and buffer at a given pH.

Chain of Voltage-gated inwardly rectifying potassium channel KCNH2 (Q12809 whole entry): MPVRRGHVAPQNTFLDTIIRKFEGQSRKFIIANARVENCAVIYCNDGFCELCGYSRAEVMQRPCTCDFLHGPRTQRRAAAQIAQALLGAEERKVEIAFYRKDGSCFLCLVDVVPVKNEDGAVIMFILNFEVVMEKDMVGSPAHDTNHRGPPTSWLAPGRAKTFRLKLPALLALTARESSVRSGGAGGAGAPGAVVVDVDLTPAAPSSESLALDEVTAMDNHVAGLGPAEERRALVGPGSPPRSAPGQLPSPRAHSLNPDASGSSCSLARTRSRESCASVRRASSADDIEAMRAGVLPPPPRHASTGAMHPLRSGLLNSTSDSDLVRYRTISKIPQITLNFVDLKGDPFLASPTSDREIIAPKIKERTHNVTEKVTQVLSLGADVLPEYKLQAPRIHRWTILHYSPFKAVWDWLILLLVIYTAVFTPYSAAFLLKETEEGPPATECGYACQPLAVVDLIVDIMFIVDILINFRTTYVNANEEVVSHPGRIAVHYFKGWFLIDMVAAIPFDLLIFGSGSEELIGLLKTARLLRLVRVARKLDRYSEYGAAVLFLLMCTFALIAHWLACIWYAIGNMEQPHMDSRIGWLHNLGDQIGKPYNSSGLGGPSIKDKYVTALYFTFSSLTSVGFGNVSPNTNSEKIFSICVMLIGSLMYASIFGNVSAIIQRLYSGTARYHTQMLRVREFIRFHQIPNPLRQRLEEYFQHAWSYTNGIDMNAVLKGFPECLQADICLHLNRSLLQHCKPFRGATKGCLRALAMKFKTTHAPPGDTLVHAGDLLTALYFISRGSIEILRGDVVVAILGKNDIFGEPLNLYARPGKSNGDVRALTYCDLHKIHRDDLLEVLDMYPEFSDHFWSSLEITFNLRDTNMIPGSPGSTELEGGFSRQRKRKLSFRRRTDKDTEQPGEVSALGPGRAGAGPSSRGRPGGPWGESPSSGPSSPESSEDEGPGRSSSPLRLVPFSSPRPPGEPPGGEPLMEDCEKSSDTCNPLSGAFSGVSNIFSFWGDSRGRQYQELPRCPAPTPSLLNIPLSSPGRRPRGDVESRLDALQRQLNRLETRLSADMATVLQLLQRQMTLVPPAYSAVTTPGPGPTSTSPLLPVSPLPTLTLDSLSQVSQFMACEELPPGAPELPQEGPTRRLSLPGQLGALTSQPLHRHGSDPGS

Take `O=C(O)C[C@H]1CC[C@@H](Oc2ccc(-c3ccc(-c4nc5cc(C(F)(F)F)ccc5[nH]4)cn3)cn2)CC1`: in series [1], half-maximal inhibition (IC50) was put at 1.5 nM. This compound also displayed a Ki in series [2] of 4100 nM.
As for `CN1CCN(c2ccc(-c3ccc(-c4nc5cc(C(F)(F)F)ccc5[nH]4)cc3)cn2)CC1`, the IC50 in series [3] amounted to 2720 nM; in series [4], 70 nM. In series [2], the Ki was 426 nM.
For `O=C(O)C1CCC(Nc2ccc(-c3ccc(-c4nc5cc(Cl)ccc5[nH]4)cn3)cn2)CC1` (racemic), the IC50 in series [3] is more than 2000 nM; in series [1], 48 nM; in series [4] it was 5.4 nM. The compound further had an Activity in series [5] of 70%. Moreover, the logD in series [6] came to 1.37. This compound also gave a Ki in series [2] of 3750 nM.
Regarding `CC1(C(=O)O)CCCN(c2ccc(-c3ccc(-c4nc5cc(Cl)ccc5[nH]4)cn3)cn2)C1` (racemic), the IC50 in series [3] is more than 2000 nM; in series [1], 36 nM; in series [4] it was 4.5 nM. The compound also gave an Activity in series [5] of 63%. The logD in series [6] came out at 1.43. In series [2], this compound had a Ki of 1980 nM.
Turning to `O=C(O)C[C@H]1CC[C@H](OC2CCN(c3ccc(-c4nc5cc(C(F)(F)F)cnc5[nH]4)cn3)CC2)CC1`, the figures for the IC50 in series [3], in series [1] and in series [4] were more than 10000 nM, 125 nM and 23.6 nM, respectively. The compound further came in with an inhibition constant Ki in series [2] of 12000 nM.
Regarding `COc1ccc2[nH]c(-c3ccc(N4CCC(O[C@H]5CC[C@H](CC(=O)O)CC5)CC4)nc3)nc2n1`, the values for the IC50 in series [3] and in series [1] were more than 10000 nM and 78 nM, respectively. For the same compound, in series [2], the Ki was determined as 20500 nM.
`O=C(O)C1CCCCC1Nc1ccc(-c2ccc(-c3nc4cc(Cl)ccc4[nH]3)cn2)cn1` (racemic): the IC50 is more than 10000 nM in series [3], 21 nM in series [1] and 4.2 nM in series [4]. In series [5], this compound showed an Activity of 0%. This compound yielded a logD in series [6] of 1.51. The compound also gave an inhibition constant (Ki) in series [2] of 3560 nM.
Consider `CN1CCN(c2ccc(-c3ccc(-c4nc5cc(C(F)(F)F)ccc5[nH]4)cc3)cc2)CC1`, for which the IC50 in series [3] was 1350 nM; in series [4], 66 nM. In series [2], this compound returned a Ki of 820 nM.
`O=C(O)c1ccc(CNc2ccc(-c3ccc(-c4nc5cc(Cl)ccc5[nH]4)cn3)cn2)cc1`: the IC50 was more than 10000 nM in series [3], 84 nM in series [1] and 9.6 nM in series [4]. The logD in series [6] is 1.3. Moreover, affinity in series [2] was put at a Ki of 11900 nM.
As to `O=C(O)C1CC(Oc2ccc(-c3ccc(-c4nc5cc(Cl)ccc5[nH]4)cn3)cn2)C1` (racemic), the IC50 was more than 2000 nM in series [3], 24 nM in series [1] and 3.5 nM in series [4]. In series [5], this compound showed an Activity of 54%. In series [6], this compound had a logD of 1.16. The compound also showed a Ki in series [2] of 20200 nM.
Turning to `O=C(O)C1(COc2ccc(-c3ccc(-c4nc5cc(Cl)ccc5[nH]4)cn3)cn2)CC1`, the IC50 is 1650 nM in series [3], 11 nM in series [1] and 3.1 nM in series [4]. The compound also gave an Activity in series [5] of 50%. The same compound had a logD in series [6] of 1.35. Further, in series [2], the Ki is 10800 nM.
In turn, `FC(F)(F)c1ccc2[nH]c(-c3ccc(-c4cccnc4)cc3)nc2c1` yielded an IC50 in series [4] of 127 nM. In series [2], this compound displayed an inhibition constant (Ki) of 1430 nM.
`O=C(O)C1(COc2ccc(-c3ccc(-c4nc5cc(Cl)ccc5[nH]4)cn3)cn2)COC1`: the IC50 in series [3] is more than 10000 nM; in series [1] it was 36 nM; in series [4], 5.3 nM. Also, the Activity in series [5] is 87%. Also, the logD in series [6] is 1.16. In addition, affinity in series [2] was put at a Ki of 6540 nM.
For `O=C(O)C[C@H]1CC[C@H](OC2CCN(c3ccc(-c4nc5cc(Cl)cnc5[nH]4)cn3)CC2)CC1`, the figures for the IC50 in series [3] and in series [1] were more than 10000 nM and 271 nM, respectively.
For `O=C(O)[C@H]1CC[C@H](Oc2ccc(-c3ccc(-c4nc5cc(Cl)ccc5[nH]4)cn3)cn2)CC1`, the IC50 in series [3] was found to be 1970 nM; in series [1], 6.3 nM; in series [4], 2.6 nM. The compound also showed an Activity in series [5] of 83%. The logD in series [6] came out at 1.39. In series [2], the affinity, expressed as Ki, was 3520 nM.
For the compound `O=C(O)C[C@H]1CC[C@@H](Oc2ccc(-c3ccc(-c4nc5cc(Cl)cnc5[nH]4)cn3)cn2)CC1`, the figures for the IC50 in series [3], in series [1] and in series [4] were 1630 nM, 5.9 nM and 3.2 nM, respectively. Besides, the Ki in series [2] was found to be 8600 nM.
As to `CC(C)(COc1ccc(-c2ccc(-c3nc4cc(Cl)ccc4[nH]3)cn2)cn1)C(=O)O`, the IC50 amounted to 971 nM in series [3], 1.4 nM in series [1] and 0.7 nM in series [4]. Besides, the logD in series [6] was 1.44. In series [2], this compound showed a Ki of 8140 nM.
Regarding `O=C(O)C[C@H]1CC[C@@H](Oc2ccc(-c3ccc(-c4nc5cc(F)c(F)cc5[nH]4)cn3)cn2)CC1`, the IC50 is more than 2000 nM in series [3], 2.6 nM in series [1] and 1.7 nM in series [4]. The compound further yielded a Ki in series [2] of 19000 nM.
Consider `N#Cc1ccc(-c2ccc(-c3nc4cc(C(F)(F)F)ccc4[nH]3)cc2)cn1`, for which the IC50 in series [3] was more than 10000 nM; in series [4] it was 38 nM. This compound also yielded an inhibition constant (Ki) in series [2] of more than 60000 nM.
Regarding `O=C(O)C[C@H]1CC[C@H](c2ccc(-c3ccc(-c4nc5cc(C(F)(F)F)ccc5[nH]4)cc3)cc2)CC1`, half-maximal inhibition in series [1] (IC50) required 1.8 nM. The compound further yielded a logD in series [6] of 2.31.
In turn, `O=C(O)C[C@H]1CC[C@H](c2ccc(-c3ccc(-c4nc5cc(Cl)ccc5[nH]4)cc3)cc2)CC1` yielded a logD in series [6] of 2.08.
Regarding `N#Cc1ccc2[nH]c(-c3ccc(N4CCC(O[C@H]5CC[C@H](CC(=O)O)CC5)CC4)nc3)nc2c1`, the IC50 in series [3] was more than 10000 nM; in series [1] it was 528 nM. In addition, the Ki in series [2] stood at 3000 nM.
Take `FC(F)(F)c1ccc2[nH]c(-c3ccc(-c4ccc(N5CCOCC5)nc4)cc3)nc2c1`: the IC50 in series [3] worked out at 1320 nM; in series [4], 65 nM. Also, the Ki in series [2] is 13000 nM.
With `O=C(O)C[C@H]1CC[C@@H](Oc2ccc(-c3ccc(-c4nc5c(F)cc(F)cc5[nH]4)cn3)cn2)CC1`, it took 2.3 nM to reach half-maximal inhibition in series [1] (IC50). The compound also gave a Ki in series [2] of 3800 nM.
In turn, `FC(F)(F)c1ccc2[nH]c(-c3ccc(-c4ccccc4)cc3)nc2c1` returned an IC50 in series [4] of 1330 nM. In series [2], this compound showed an inhibition constant (Ki) of 2310 nM.
For the compound `Oc1ccc(-c2ccc(-c3nc4cc(C(F)(F)F)ccc4[nH]3)cc2)cc1`, the 50% inhibitory concentration (IC50) in series [4] turned out to be 451 nM. This compound also came in with a Ki in series [2] of 1640 nM.
In series [1], `Cc1ccc2[nH]c(-c3ccc(N4CCC(O[C@H]5CC[C@H](CC(=O)O)CC5)CC4)nc3)nc2n1` showed an IC50 of 1910 nM.
As to `O=C(O)[C@H]1CC[C@@H](Oc2ccc(-c3ccc(-c4nc5cc(Cl)ccc5[nH]4)cn3)cn2)CC1`, the IC50 in series [3] was more than 2000 nM; in series [1] it was 2.8 nM; in series [4], 1.5 nM. The compound further yielded an Activity in series [5] of 144%. The compound further came in with a Ki in series [2] of 5390 nM.
For the compound `N#Cc1ccc(-c2ccc(-c3nc4cc(C(F)(F)F)ccc4[nH]3)cc2)cc1`, the IC50 stood at 1400 nM in series [3] and 98 nM in series [4]. In series [2], this compound displayed a Ki of 616 nM.
`O=C(O)C[C@H]1CC[C@@H](Oc2ccc(-c3ccc(-c4nc5cc(Cl)ccc5[nH]4)cn3)cn2)CC1` came in with an IC50 in series [1] of 1.7 nM. In addition, the affinity in series [2], expressed as Ki, was 3000 nM.
On to `O=C(O)C1CC(Nc2ccc(-c3ccc(-c4nc5cc(Cl)ccc5[nH]4)cn3)cn2)C1` (racemic), for which the values for the IC50 in series [3], in series [1] and in series [4] were more than 2000 nM, 247 nM and 22 nM, respectively. In series [6], this compound registered a logD of 1.29. The compound further registered a Ki in series [2] of more than 60000 nM.
